Test results taken from patent publication US7232805B2, “Cobalamin conjugates for anti-tumor therapy” (Inflabloc Pharmaceuticals, Inc., priority 2003, dated 2007).

What was measured:
[1] = tested on: MX-1 human breast carcinoma xenograft; test: tumor growth delay, MX-1 xenograft, single-cycle dosing (Example 3); conditions: 3 mg/kg/day x 5 days intravenous
Method: Test articles were administered on the day of pair matching, Day 1.
The upper limit of acceptability is 20% weight loss.

[2] = systemic toxicity / MTD of free doxorubicin versus conjugate on a molar basis (separate study); format: in vivo, mice
[3] = tested on: MX-1 human breast carcinoma xenograft; test: tumor growth delay, MX-1 xenograft, two-cycle dosing (Example 11); conditions: 2-cycle
Method: The following procedure was used to investigate the tumor growth delay effects of the conjugate, particularly for the treatment of MX-1 human breast carcinoma xenograft in athymic mice using a two-cycle dosing regimen. Female nude Harlan mice are implanted subcutaneously with 1 mm^3 MX 1 solid tumor fragments in the flank. During the pre-dose phase of implantation and growth, tumors are initially monitored twice weekly, and then daily as the neoplasms approach the desired size of 80-120 mg. When the majority of tumors reached the targeted weight range (80-120 mg), mice are pair-matched into 5 treatment groups of 10 mice each. For purposes of this illustrationon the effect of 2-cycles of treatment, data from 3 groups are shown: no treatment, 3 mg/kg/day (days 1-5, 21-25) intravenous Doxorubicin and 24 mg/kg/day (days 1-5, 21-25) intravenous bioconjugate. Test article administration began on this day, referred to as Day 1. The tumor growth delay endpoint is reached when the tumor on the mouse reaches 1.5 gm weight estimated by the formula: Tumor weight (mg)=w^2×l/2×1 mg/mm^3, where w=width (mm) and l=length (mm) of the tumor. The median time to endpoint is calculated for each treatment group.

With `COc1cccc2c1C(=O)c1c(O)c3c(c(O)c1C2=O)C[C@@](O)(C(=O)CO)C[C@@H]3O[C@H]1C[C@H](N)[C@H](O)[C@H](C)O1` [Doxorubicin, doxorubicin, reference compound] the “median delay in tumor growth (median time to endpoint, tumor 1.5 gm)” value [1] was 39.5 days, the “treatment or nontreatment related deaths” value [1] was “no other treatment or nontreatment related deaths” and the “long-term, tumor-free survivors” value ([1]; 10 mice) was “no long-term, tumor-free survivors”. For the same compound, the “partial or complete tumor regressions” value ([1]; 10 mice) was “no partial or complete tumor regressions”, the “lethality at the same high molar dose” value ([2]; free doxorubicin at the same high molar dose as the conjugate) was “mice were killed by the free doxorubicin” and the “MTD lower than for the conjugate on a molar basis” value ([2]; separate study) was “at least 2.3 times”. For the same compound, the “time to endpoint longer than control mice” value ([3]; 3 mg/kg/day (days 1-5, 21-25) intravenous) was “at least 44 days”, the “treatment or nontreatment related deaths” value ([3]; 3 mg/kg/day intravenous) was “no treatment or nontreatment related deaths” and the “long-term, tumor-free survivors” value ([3]; 3 mg/kg/day intravenous, at 71 days) was “significant percentage”.
